Assay results reported in US5952307A, “Basic α-aminoalkylphosphonate derivatives” (priority 1997, dated 1999).

Tests used:
Type in all cases: biochemical
human thrombin = target: T1, human thrombin (Homo sapiens, UniProt P00734); details: Table II; 0.07 μM thrombin, 0.25-42 μM inhibitor, 80 mM Hepes pH 7.5, 428 mM NaCl, 8% DMSO, 25° C.; NI = no inhibition
T1 construct: bovine trypsin, human thrombin
Experimental: (§1) Inactivation rates of serine proteases by aryl diesters of peptidyl derivatives of α-aminoalkylphosphonates were measured by the incubation method. An aliquot of inhibitor (25 or 50 μl) in Me2 SO was added to a buffered enzyme solution (0.01-2.3 μM) to initiate the inactivation. Aliquots (50 μl) were withdrawn at various intervals and the residual enzymatic activity was measured. Me2 SO concentration in the reaction mixture was 8-12% (v/v). A 0.1 M HEPES, 0.01 M CaCl2, pH 7.5 buffer was utilized for trypsin and trypsin-like enzymes. A 0.1 M HEPES, 0.5 M NaCl, pH 7.5, was utilized for the other serine proteases. Peptide thioesters or peptide nitroanilides with the appropriate sequences were used as substrates for various serine proteases. All peptide thioesters hydrolysis rates were measured with the assay mixture containing 4,4'-dithiodipyridine {ε324 =19800 M^-1 cm^-1; Grasetti & Murray, Arch. Biochem. Biophys. 1967, 119, 41-48}. Peptide 4-nitroanilide hydrolysis was measured at 410 nm {ε410 =8800 M^-1 cm^-1; Erlanger et al., Arch. Biochem. Biophys. 1961, 95, 271-278}.
(§2) ^a Enzyme was incubated with the inhibitor in 250 μL of the proper
(§3) buffer at 25° C. Specifically, the inhibition reation mixtures wer
(§4) Hepes, pH 7.5 buffer containing 1 mM CaCl2 and 8% DMSO; 0.07 μM
thrombin, 0.25-42 μM inhibitor in an 80 mM Hepes, pH 7.5 buffer
(§5) containing 428 mM NaCl and 8% DMSO; 0.07 μM tryptase, 20-66 μM
(§6) DMSO. Aliquots of 25 μL were withdrawn at various intervals and the
(§7) residual enzymatic activity was measured as described in experimental
(§8) section. The kobs values were calculated from pseudofirst-order
(§9) ^a Enzyme (0.06-0.5 μM) was incubated with the inhibitor (0.25-42
(§10) μM) in 250 μL of the proper buffer containing 9% DMSO at 25°
(§11) C. The final inhibition reaction mixtures are given in the footnote to
(§12) Table 1. Aliquots of 25 μL were withdrawn at various intervals and the […]

bovine trypsin = target: T2, bovine trypsin (Bos taurus, UniProt P00760); assay: Inactivation rate of bovine trypsin, incubation method; details: for kobsd /[I] bovine trypsin: Table I, 0.1M Hepes, 0.01M CaCl2 pH 7.5, 25° C., 2% DMSO, substrate Z--Arg--SBzl, NI = no inhibition after 25 min; for kobs /[I] bovine trypsin: Table II, 0.13 μM trypsin, 0.25-42 μM inhibitor, 80 mM Hepes pH 7.5, 1 mM CaCl2, 8% DMSO, 25° C., NI = no inhibition
T2 sequence (P00760 24-246): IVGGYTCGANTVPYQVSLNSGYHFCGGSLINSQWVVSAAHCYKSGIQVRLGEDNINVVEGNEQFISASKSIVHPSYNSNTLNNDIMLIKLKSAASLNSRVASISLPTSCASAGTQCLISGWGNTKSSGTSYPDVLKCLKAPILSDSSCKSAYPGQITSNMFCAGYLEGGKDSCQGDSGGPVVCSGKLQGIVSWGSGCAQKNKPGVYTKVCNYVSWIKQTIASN
Experimental: as §1, with “271-278}. First order inactivation rate constants (Kobs) were obtained from plots of In vt /vo vs time, and the correlation coefficients were greater then 0.98.” for “271-278}.”
(§13) ^a Inhibition constants were measured in 0.1M Hepes, 0.01M CaCl2
(§14) pH 7.5 for trypsin, granzymes A, and K, and in 0.1M Hepes, 10% glycerol,
(§15) 10 mM heparin, pH 7.5 for mast cell tryptase, and at 25° C. The
(§16) reaction mixtures contained 2% DMSO for trypsin, 7.6% for granzyme A, and
(§17) 7.1% for granzyme K and tryptase. The substrate was Z--Arg--SBzl for
(§18) granzymes and trypsin, and Z--Arg--SBzl or Z--Lys--SBzl for tryptase in
(§19) the presence of DTNB. The inhibitor # concentration ranged from 0.001 to
(§20) ^b NI, no inhibition after 25 min of incubation with enzyme.
as §2, §3
composed of: 0.13 μM trypsin, 0.25-42 μM inhibitor in an 80 mM
as §4, §6, §7, §8, §9, §10, §11, §12

human granzyme A = target: T3, human granzyme A (Homo sapiens, UniProt P12544); assay: Inactivation rate of human granzyme A, incubation method; details: Table I; 0.1M Hepes, 0.01M CaCl2 pH 7.5, 25° C., 7.6% DMSO, substrate Z--Arg--SBzl
T3 sequence (P12544 29-262): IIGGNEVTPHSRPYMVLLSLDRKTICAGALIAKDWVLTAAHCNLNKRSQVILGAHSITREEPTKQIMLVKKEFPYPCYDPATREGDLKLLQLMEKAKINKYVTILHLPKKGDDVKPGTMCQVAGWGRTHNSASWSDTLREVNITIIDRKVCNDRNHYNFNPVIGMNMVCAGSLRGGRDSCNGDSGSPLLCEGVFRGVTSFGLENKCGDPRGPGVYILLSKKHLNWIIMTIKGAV
Experimental: as §1, with “271-278}. First order inactivation rate constants (Kobs) were obtained from plots of In vt /vo vs time, and the correlation coefficients were greater then 0.98.” for “271-278}.”
as §13, §14, §15, §16, §17, §18, §19, §20

mast cell tryptase = mast cell tryptase (Homo sapiens, UniProt Q15661); assay: Inactivation rate of mast cell tryptase, incubation method; details: for kobsd /[I] mast cell tryptase: 0.1M Hepes, 10% glycerol, 10 mM heparin, pH 7.5, 25° C., 7.1% DMSO, NI = no inhibition after 25 min of incubation; for kobs /[I] mast cell tryptase: 0.07 μM tryptase, 20-66 μM inhibitor, Hepes pH 7.5, heparin, 9% glycerol, 8% DMSO, 25° C., NI = no inhibition
Experimental: as §1, with “271-278}. First order inactivation rate constants (Kobs) were obtained from plots of In vt /vo vs time, and the correlation coefficients were greater then 0.98.” for “271-278}.”
as §13, §14, §15, §16, §17, §18, §19, §20, §2, §5
inhibitor # in an mM Hepes, pH 7.5 buffer containing 8 mM heparin, 166 m
NaCl, 0.8 mM Mes, 9% glycerol and 8% DMSO; 0.42 μM factor Xa, 66 μM
as §6, §7, §8, §9, §10, §11, §12

rat granzyme K = target: T4, rat granzyme K (Rattus norvegicus, UniProt P49864); assay: Inactivation rate of rat granzyme K, incubation method; details: Table I; 0.1M Hepes, 0.01M CaCl2 pH 7.5, 25° C., 7.1% DMSO, substrate Z--Arg--SBzl; NI = no inhibition after 25 min of incubation
T4 sequence (P49864 26-258): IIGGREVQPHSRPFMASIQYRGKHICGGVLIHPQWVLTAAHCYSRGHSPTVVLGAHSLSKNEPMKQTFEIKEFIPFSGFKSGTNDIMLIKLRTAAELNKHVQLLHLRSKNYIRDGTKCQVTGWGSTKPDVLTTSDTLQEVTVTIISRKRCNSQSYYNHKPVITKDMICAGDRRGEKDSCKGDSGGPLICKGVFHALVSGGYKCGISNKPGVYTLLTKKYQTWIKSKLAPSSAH
Experimental: as §1, with “271-278}. First order inactivation rate constants (Kobs) were obtained from plots of In vt /vo vs time, and the correlation coefficients were greater then 0.98.” for “271-278}.”
as §13, §14, §15, §16, §17, §18, §19, §20

Chain of mast cell tryptase (Q15661 31-275): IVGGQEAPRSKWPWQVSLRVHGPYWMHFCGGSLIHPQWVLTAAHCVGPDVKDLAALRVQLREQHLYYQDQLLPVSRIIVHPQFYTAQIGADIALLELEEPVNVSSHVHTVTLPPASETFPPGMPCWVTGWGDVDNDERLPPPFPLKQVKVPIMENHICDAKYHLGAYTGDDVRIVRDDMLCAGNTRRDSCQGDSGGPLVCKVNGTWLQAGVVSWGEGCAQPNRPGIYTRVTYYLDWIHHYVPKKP

| Structure (SMILES) | kobs /[I] human thrombin (human thrombin) | kobsd /[I] bovine trypsin (bovine trypsin) [M⁻¹ s⁻¹] | kobs /[I] bovine trypsin (bovine trypsin) | kobsd /[I] human granzyme A (human granzyme A) [M⁻¹ s⁻¹] | kobsd /[I] mast cell tryptase (mast cell tryptase; Table I) [M⁻¹ s⁻¹] | kobsd /[I] rat granzyme K (rat granzyme K) [M⁻¹ s⁻¹] | kobs /[I] mast cell tryptase (mast cell tryptase; Table II) [M⁻¹ s⁻¹] | % Inh mast cell tryptase (mast cell tryptase; Table I, printed in the kobsd/[I] column) [%] | % Inh mast cell tryptase (mast cell tryptase; Table II, printed in the kobs/[I] column) [%] |
| --- | --- | --- | --- | --- | --- | --- | --- | --- | --- |
| CC(NC(=O)C(CC(=O)O)NC(=O)OCc1ccccc1)C(=O)NC(c1ccc(C(=N)N)cc1)P(=O)(Oc1ccccc1)Oc1ccccc1 (mixture of isomers) [Cbz--Asp--Ala-(4-AmPhGly)^P (OPh)2] | 110 ± 12 M⁻¹ s⁻¹ | 2550 ± 145 | 2,550 ± 145 M^-1 s^-1 | 240 ± 5 | 0.7 | 6 | – | – | – |
| CC(NC(=O)C(CCCCNC(=O)OC(C)(C)C)NC(=O)OCc1ccccc1)C(=O)NC(c1ccc(C(=N)N)cc1)P(=O)(Oc1ccccc1)Oc1ccccc1 (mixture of isomers) [Cbz--Lyz(Boc)--Ala-(4-AmPhGly)^P (OPh)2] | 450 ± 58 M⁻¹ s⁻¹ | 3100 ± 177 | 3,100 ± 177 M^-1 s^-1 | 110 ± 5 | 8.5 ± 0.4 | – | 8.7 ± 0.4 | – | – |
| CC(NC(=O)C(Cc1ccccc1)NC(=O)OCc1ccccc1)C(=O)NC(c1ccc(C(=N)N)cc1)P(=O)(Oc1ccccc1)Oc1ccccc1 (mixture of isomers) [Cbz--Phe--Ala-(4-AmPhGly)^P (OPh)2] | 1,150 ± 88 M^-1 s^-1 | 3010 ± 318 | 3,010 ± 318 M^-1 s^-1 | 1770 ± 13 | 4 | 4.2 ± 0.3 | 4.0 ± 0.3 | – | – |
| CC(C)C(NC(=O)OCc1ccccc1)C(=O)NC(c1ccc(C(=N)N)cc1)P(=O)(Oc1ccccc1)Oc1ccccc1 (mixture of isomers) [Cbz--Val-(4-AmPhGly)^P (OPh)2] | 5.5 ± 0.4 M⁻¹ s⁻¹ | 41 ± 3 | 18 ± 2 M⁻¹ s⁻¹ | 6.7 ± 0.1 | 21.2 ± 0.2 | 0.7 ± 0.04 | 21.2 ± 0.2 | – | – |
| N=C(N)c1ccc(C(NC(=O)C2CCCN2C(=O)CNS(=O)(=O)Cc2ccccc2)P(=O)(Oc2ccccc2)Oc2ccccc2)cc1 (mixture of isomers) [PhCH2 SO2 --Gly--Pro-(4-AmPhGly)^P (OPh)2] | 17,200 ± 128 M^-1 s^-1 | 37060 ± 986 | 37,060 ± 986 M^-1 s^-1 | 3650 ± 180 | 2 | 87 | 2.0 ± 0.1 | – | – |
| N=C(N)c1ccc(C(NC(=O)[C@@H]2CCCN2C(=O)CC(c2ccccc2)c2ccccc2)P(=O)(Oc2ccccc2)Oc2ccccc2)cc1 (some centres unmarked) [3,3-Diphenylpropanoyl-Pro-(4-AmPhGly)^P (OPh)2] | 80,300 ± 368 M^-1 s^-1 | 2660 ± 40 | 2,660 ± 40 M^-1 s^-1 | 250 ± 8 | – | 1830 ± 140 | – | – | – |
| N=C(N)c1ccc(C(NC(=O)C2CCCN2C(=O)CCc2ccccc2)P(=O)(Oc2ccccc2)Oc2ccccc2)cc1 (centres unmarked) [3-Phenylpropanoyl-Pro-(4-AmPhGly)^P (OPh)2] | 6,070 ± 68 M^-1 s^-1 | 1520 ± 27 | 1,520 ± 27 M^-1 s^-1 | 1510 ± 217 | 0.4 | 50 ± 2 | 0.4 | – | – |
| C[C@H](NC(=O)[C@H](CC(=O)OC(C)(C)C)NC(=O)OCc1ccccc1)C(=O)NC(c1ccc(C(=N)N)cc1)P(=O)(Oc1ccccc1)Oc1ccccc1 (some centres unmarked) [Cbz--Asp(O-t-Bu)--Ala-(4-AmPhGly)^P (OPh)2] | 480 ± 93 M⁻¹ s⁻¹ | 2000 ± 24 | 2,000 ± 24 M^-1 s^-1 | 280 ± 5 | 3 | – | 3 ± 0 | – | – |
| C[C@@H](O)[C@H](NC(=O)OCc1ccccc1)C(=O)NC(c1ccc(C(=N)N)cc1)P(=O)(Oc1ccccc1)Oc1ccccc1 (some centres unmarked) [Cbz--Thr-(4-AmPhGly)^P (OPh)2] | 61 ± 3 M⁻¹ s⁻¹ | 97 | 97 ± 2 M⁻¹ s⁻¹ | 2220 ± 40 | – | 3 | – | – | – |
| Cl.N=C(N)c1ccc(C(NC(=O)[C@@H]2CCCN2C(=O)c2cccc(Oc3ccccc3)c2)P(=O)(Oc2ccccc2)Oc2ccccc2)cc1 (some centres unmarked) [Diphenyl N-(N-(3-Phenoxybenzoylprolyl))amino(4-amidinophenyl)methanephosphonate Hydrochloride] | 1,340 ± 225 M^-1 s^-1 | 4080 ± 32 | 4,080 ± 32 M^-1 s^-1 | 330 ± 58 | – | – | – | 7 | 7 |
